Here are results for 1 molecule from patent US20150252048A1, “SUBSTITUTED N-(3-PYRIMIDIN-4-YL)PHENYL)ACRYLAMIDE ANALOGS AS TYROSINE RECEPTOR KINASE BTK INHIBITORS” (UNIVERSITY OF UTAH RESEARCH FOUNDATION, priority 2012, published 2015).

pIC50: −log10 of the molar value.

Common to all, as to assay type: biochemical
Test [1] concerns the target BTK (Homo sapiens, UniProt Q06187). Kind of test: BTK kinase assay: time resolved-FRET (HTRF) assay. Details: recombinant full-length human BTK kinase with a (His)6 tag; (His)6; purchased Invitrogen Corporation, Carlsbad, Calif. Particulars: 10 nM BTK, 60 μM ATP, 1 μM substrate. The protocol: Activity of compounds was routinely confirmed using a secondary assay as described herein. The secondary assay was a time resolved-FRET kinase assay. Test compound are diluted to desired concentrations in kinase reaction buffer and briefly incubated with BTK kinase (as described above; Invitrogen). The reaction is initiated by the addition of ATP and enzyme substrate, HTRF® KinEASE™-TK Substrate-biotin (Cisbio US, Bedford, Mass.). The composition of the reaction (10 μl) was: 1% v/v DMSO, 10 nM BTK, 60 μM ATP, and 1 μM substrate. After incubation at room temperature for 60 min, the enzyme reaction is stopped by EDTA-containing buffer, which also contains europium-labeled (Eu^3+-Cryptate) anti-phosphotyrosine antibody (Cisbio) and Streptavidin-XL665 (Cisbio). The europium-labeled antibody generates a time-resolved FRET signal with the Stepavidin-XL665, which binds to the biotinylated TK substrate through the streptavidin conjugate when the substrate is phosphorylated. After one hour incubation at room temperature, fluoresence was measured with excitation of 320 nm and dual emission of 615 and 665 nm on an EnVision microplate reader. Signal is expressed in terms of a TR-FRET ratio (665:615).
IC50 values are determined using GraphPad Prism 5 software. The data were entered as an X-Y plot into the software as percent inhibition for each concentration of the drug. The concentration values of the drug were log transformed and the nonlinear regression was carried out using the “sigmoidal dose-response (variable slope)” option within the GraphPad software to model the data and calculate IC50 values. The IC50 values reported are the concentration of drug at which 50% inhibition was reached.
Activity (IC50) was determined in the BTK assays describe herein below, i.e. either the ADP generation assay and/or the time-resolved FRET assay, and the data are shown in Table III. The compound number corresponds to the compound numbers used in Table I. In the table below, “ADP Assay” refers to the assay which measures production of ADP resulting from use of ATP by the kinase; and “HTRF Assay” refers to the time resolved-FRET kinase assay described in the examples. Multiple values in a given column indicate the results of more than one assay for the given compound. Representative data of the type used to determine the IC50 values for the ADP assay in Table III are shown in FIG. 8 for compounds 3, 4, and 5.

The target in test [2] is EGFR (T790M) (Homo sapiens, UniProt P00533, T790M). Briefly: Specific kinase IC50 assay. The conditions noted are these: 1 μM ATP, 10-dose, duplicate. Here is the method: (§1) The assays were carried out in the presence of 1 μM ATP and were conducted in a 10-dose format in duplicate with three-fold serial dilutions starting at 10 μM.
EGFR (T790M), sequence (P00533 25-1210 T790M, species assumed): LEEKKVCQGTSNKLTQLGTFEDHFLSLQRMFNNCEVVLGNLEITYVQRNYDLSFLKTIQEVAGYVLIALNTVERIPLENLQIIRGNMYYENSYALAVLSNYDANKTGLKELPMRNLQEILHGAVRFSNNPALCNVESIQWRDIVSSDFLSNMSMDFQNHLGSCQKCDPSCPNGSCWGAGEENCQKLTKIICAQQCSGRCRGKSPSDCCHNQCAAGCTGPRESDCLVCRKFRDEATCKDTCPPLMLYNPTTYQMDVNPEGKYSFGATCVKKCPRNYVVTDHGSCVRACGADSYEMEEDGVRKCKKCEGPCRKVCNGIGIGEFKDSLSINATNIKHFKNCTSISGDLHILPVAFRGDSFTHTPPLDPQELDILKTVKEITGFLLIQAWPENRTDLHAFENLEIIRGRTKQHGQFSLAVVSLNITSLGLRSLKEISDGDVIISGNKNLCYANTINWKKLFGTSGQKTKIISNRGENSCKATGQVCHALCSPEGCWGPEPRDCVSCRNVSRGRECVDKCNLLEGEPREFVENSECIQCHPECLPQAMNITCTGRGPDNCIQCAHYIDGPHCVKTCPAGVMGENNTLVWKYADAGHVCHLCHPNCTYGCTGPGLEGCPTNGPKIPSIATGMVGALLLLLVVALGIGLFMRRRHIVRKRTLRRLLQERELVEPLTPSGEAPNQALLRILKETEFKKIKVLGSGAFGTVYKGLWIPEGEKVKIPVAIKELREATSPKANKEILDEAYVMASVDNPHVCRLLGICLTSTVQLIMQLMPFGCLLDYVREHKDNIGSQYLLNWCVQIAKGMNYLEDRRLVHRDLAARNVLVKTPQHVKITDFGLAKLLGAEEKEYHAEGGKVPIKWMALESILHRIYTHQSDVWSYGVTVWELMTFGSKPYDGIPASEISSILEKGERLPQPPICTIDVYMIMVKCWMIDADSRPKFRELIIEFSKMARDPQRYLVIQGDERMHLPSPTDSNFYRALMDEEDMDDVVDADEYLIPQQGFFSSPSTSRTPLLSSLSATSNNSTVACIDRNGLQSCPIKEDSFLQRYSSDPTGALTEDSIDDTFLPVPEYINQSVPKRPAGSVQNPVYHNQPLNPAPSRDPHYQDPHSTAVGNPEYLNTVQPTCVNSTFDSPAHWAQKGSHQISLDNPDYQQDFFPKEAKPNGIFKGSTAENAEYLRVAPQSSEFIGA
Test [3] deals with T1, TEC (Homo sapiens, UniProt P42680).
T1 sequence (P42680 1-631): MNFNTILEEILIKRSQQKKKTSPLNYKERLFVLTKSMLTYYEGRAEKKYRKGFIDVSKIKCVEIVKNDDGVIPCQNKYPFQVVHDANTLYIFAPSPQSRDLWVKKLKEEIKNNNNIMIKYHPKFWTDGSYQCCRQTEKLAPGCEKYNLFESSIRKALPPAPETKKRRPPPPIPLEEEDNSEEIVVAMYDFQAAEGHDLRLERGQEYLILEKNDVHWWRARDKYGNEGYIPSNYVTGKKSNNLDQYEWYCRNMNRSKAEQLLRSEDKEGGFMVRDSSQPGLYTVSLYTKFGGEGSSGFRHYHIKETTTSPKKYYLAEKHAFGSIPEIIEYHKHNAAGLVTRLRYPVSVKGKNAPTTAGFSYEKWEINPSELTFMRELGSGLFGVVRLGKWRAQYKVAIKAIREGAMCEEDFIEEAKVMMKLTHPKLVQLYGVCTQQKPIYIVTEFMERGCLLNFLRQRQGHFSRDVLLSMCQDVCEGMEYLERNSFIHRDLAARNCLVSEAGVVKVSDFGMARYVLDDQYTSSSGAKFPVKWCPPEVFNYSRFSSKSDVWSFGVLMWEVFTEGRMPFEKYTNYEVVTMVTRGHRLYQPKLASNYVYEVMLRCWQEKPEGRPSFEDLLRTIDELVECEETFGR
Kind of test: Specific kinase IC50 assay. Particulars: 1 μM ATP, 10-dose, duplicate. The protocol:
as §1

Test [4] concerns the target ERBB4/HER4 (Homo sapiens, UniProt Q15303). Briefly: Specific kinase IC50 assay. The conditions noted are these: 1 μM ATP, 10-dose, duplicate. Here is the method:
as §1

The target of test [5] is T2, BMX/ETK (Homo sapiens, UniProt P51813).
T2 sequence (P51813 1-675): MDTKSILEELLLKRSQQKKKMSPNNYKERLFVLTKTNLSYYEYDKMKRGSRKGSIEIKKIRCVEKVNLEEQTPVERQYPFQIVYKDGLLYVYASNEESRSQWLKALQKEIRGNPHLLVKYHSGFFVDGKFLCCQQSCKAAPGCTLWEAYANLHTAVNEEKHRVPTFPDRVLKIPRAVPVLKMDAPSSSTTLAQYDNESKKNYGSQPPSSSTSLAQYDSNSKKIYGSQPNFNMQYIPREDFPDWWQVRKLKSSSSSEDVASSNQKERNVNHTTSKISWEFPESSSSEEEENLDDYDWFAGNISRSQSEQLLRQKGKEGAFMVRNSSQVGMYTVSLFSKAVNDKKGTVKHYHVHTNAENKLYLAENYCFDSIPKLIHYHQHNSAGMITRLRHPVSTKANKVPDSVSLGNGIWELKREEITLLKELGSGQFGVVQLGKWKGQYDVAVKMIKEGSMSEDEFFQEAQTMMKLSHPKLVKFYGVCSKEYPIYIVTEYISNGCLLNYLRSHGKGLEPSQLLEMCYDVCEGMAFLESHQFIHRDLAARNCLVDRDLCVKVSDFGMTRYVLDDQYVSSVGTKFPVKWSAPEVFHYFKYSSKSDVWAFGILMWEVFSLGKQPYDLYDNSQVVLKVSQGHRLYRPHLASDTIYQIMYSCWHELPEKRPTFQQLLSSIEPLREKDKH
Briefly: Specific kinase IC50 assay. The conditions noted are these: 1 μM ATP, 10-dose, duplicate. Here is the method:
as §1

ERBB4/HER4, sequence (Q15303 26-1308): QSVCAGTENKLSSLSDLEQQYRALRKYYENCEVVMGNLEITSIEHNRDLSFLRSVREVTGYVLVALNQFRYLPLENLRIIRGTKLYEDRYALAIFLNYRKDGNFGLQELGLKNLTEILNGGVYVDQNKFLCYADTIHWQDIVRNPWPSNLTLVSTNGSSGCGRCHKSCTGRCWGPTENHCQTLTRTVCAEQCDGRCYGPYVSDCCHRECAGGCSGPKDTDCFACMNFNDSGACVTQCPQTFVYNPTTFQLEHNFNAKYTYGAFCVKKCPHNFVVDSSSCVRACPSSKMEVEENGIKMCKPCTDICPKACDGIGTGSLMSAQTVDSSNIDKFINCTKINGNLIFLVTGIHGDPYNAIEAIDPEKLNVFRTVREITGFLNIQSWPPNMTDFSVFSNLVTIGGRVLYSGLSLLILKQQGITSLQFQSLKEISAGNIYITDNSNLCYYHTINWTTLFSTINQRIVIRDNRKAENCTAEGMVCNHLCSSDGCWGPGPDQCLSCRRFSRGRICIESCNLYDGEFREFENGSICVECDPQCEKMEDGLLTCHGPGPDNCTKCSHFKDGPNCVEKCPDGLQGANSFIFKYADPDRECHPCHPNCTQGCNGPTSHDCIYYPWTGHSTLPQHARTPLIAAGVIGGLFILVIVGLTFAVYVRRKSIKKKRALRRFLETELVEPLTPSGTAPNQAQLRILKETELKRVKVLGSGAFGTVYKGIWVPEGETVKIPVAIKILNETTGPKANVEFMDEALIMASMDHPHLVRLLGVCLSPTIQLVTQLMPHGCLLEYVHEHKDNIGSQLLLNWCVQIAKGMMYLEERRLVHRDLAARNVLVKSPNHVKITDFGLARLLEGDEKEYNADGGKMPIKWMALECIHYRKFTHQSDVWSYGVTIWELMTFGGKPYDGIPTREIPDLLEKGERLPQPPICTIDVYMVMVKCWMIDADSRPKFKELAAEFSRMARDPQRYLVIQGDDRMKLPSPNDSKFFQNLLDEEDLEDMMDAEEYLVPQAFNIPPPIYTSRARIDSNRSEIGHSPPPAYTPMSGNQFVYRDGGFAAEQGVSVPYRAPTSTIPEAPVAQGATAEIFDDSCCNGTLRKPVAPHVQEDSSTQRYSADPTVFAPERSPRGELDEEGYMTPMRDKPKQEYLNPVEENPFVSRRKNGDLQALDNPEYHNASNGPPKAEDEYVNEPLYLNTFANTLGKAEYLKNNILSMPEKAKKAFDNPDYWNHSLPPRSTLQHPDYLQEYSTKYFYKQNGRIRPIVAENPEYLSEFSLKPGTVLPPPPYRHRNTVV
BTK, sequence (Q06187 whole entry): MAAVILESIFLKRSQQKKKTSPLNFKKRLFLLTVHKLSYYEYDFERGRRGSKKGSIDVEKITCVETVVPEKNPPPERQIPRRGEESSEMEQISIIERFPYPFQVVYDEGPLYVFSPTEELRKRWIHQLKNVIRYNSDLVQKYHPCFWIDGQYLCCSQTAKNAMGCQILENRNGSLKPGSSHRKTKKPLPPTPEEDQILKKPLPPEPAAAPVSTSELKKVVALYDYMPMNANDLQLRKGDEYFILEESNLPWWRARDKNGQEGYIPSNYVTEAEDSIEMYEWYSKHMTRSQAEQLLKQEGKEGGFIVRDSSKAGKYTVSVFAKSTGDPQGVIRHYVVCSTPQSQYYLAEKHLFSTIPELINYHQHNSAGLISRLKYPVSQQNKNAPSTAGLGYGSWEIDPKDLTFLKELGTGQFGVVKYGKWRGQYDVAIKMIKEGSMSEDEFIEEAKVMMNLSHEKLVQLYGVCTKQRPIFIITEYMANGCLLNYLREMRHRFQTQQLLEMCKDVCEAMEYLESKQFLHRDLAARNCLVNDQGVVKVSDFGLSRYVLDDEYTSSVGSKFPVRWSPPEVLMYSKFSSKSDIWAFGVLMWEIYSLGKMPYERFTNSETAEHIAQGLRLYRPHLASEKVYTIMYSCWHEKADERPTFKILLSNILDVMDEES

As for `C=CC(=O)Nc1cccc(-c2nc(Nc3cccc(N4CCOCC4)c3)nc3[nH]ncc23)c1` [Compound 3, N-(3-(6-((3-morpholinophenyl)amino)-1H-pyrazolo[3,4-d]pyrimidin-4-yl)phenyl)acrylamide], the pIC50 in test [1] is 8.10; in test [2], 6.01; in test [3] it was 7.30; in test [4], 7.76; in test [5], 8.03.
